This note sets out measurements from US9556139B2, “6-substituted phenoxychroman carboxylic acid derivatives” (Array BioPharma Inc., priority 2008, dated 2017).

The structures appear in SMILES notation.

In this assay the target is human DP2 (Homo sapiens (Human), UniProt Q9Y5Y4). The assay is described as follows: DP-2 Binding Inhibition Assay (3H-PGD2 binding to membranes of K562 cells expressing DP2). The settings on record: read-out: EC50 (nM) 4% HSA; inhibition of 3H-PGD2 binding, 4% HSA. The gist of the method: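 Radioligand filtration binding: ³H-PGD2 displacement from DP2-expressing K562 cell membranes, 60 min, room temperature, pH 7.4, under 0.1% BSA, 1% HSA or 4% HSA.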
human DP2, sequence (Q9Y5Y4 whole entry): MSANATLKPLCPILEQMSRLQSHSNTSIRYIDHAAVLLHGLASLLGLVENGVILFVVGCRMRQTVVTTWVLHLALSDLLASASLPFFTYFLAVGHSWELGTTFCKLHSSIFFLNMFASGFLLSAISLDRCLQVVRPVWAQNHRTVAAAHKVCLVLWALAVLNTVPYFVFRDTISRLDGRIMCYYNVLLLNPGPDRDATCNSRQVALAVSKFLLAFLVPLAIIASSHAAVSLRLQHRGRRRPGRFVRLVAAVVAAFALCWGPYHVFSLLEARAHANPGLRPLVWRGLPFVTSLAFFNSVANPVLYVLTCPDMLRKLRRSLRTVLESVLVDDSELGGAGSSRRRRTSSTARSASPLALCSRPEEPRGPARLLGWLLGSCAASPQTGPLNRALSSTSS
For the molecule `O=C(NCC(O)c1ccccc1Cl)c1ccc(Oc2cc3c(cc2Cl)C(C(=O)O)CCO3)cc1` (stereo not drawn) [Example 185, Sodium 6-chloro-7-(4-(2-(2-chlorophenyl)-2-hydroxyethylcarbamoyl)phenoxy)chroman-4-carboxylate], the EC50 (usually the concentration needed to bring the measured effect to its halfway point) stood at 857 nM.
As for `O=C(NCCc1ccc(Cl)cc1OCC1CC1)c1ccc(Oc2cc3c(cc2Cl)C(C(=O)O)CCO3)cc1` (stereo not drawn) [Example 199, sodium 6-chloro-7-(4-(4-chloro-2-(cyclopropyl-methoxy)phenethylcarbamoyl)phenoxy)chroman-4-carboxylate], the figure is 111 nM.
The result for `O=C(NCCc1ccc(C2CC2)cc1)c1ccc(Oc2cc3c(cc2Cl)C(C(=O)O)CCO3)cc1` (stereo not drawn) [Example 24, Sodium 6-chloro-7-(4-(4-cyclopropylphenethylcarbamoyl)phenoxy)chroman-4-carboxylate] reads 482 nM.
